In publication PMC7381729, “A new class of PentixaFor- and PentixaTher-based theranostic agents with enhanced CXCR4-targeting efficiency” (Theranostics, 2020):
Where two headings read alike, the source gives them in different places. Where a SMILES comes first, the peptide text is derived from it. Side-chain parts run from the residue outwards. [ ]: non-standard residue; d: D form. The star is where a group is joined. DOTA = O=C(O)CN1CCN(CC(=O)O)CCN(CC(=O)*)CCN(CC(=O)O)CC1; dTyr(3-I) = N[C@H](Cc1ccc(O)c(I)c1)C(=O)O; 2Nal = N[C@@H](Cc1ccc2ccccc2c1)C(=O)O; dNMeOrn = CN[C@H](CCCN)C(=O)O; 4Amb = NCc1ccc(C(=O)O)cc1; 4Abz = Nc1ccc(C(=O)O)cc1

Key:
[1] = In vivo metabolite analysis (radio-HPLC); design: species or system mouse; conditions: CB17 SCID mice, 0.5h p.i., i.v. app. 35 MBq; radio-HPLC of extracts
Protocol: 68Ga-labeling was performed as published previously using a 68Ge/68Ga generator (iTHEMBA Labs, South Africa) and a GallElut + synthesis module (SCINTOMICS GmbH, Germany). Usually, 5 nmol of precursor peptide were used, yielding the 68Ga-labeled peptides in specific activities of 100 to 120 […]
For 177Lu-labeling, the peptides were dissolved in water to yield a 1 mM solution. Of this solution, the required volume was added to 177LuCl3 in 0.04 M HCl (ITG/ITM, Garching, Germany; activity concentration: 370 MBq/500 µl) to achieve a peptide-to -177Lu-activity ratio of 1 nmol peptide per 225 MBq 177LuCl3. To this mixture, 1 M NH4OAc was added (calculated to be 10% of total reaction volume), and the mixture was heated to 90°C for 4 0 min. […]
Human glioma U87 cells overexpressing CD4 and CXCR4 (U87CD4CXCR4) cells were kept in cultivation at least one week before starting the experiment. […] Perkin-Elmer’s LANCE cAMP assay kit (catalog #AD0262) based on time-resolved fluorescence resonance energy transfer (TR -FRET) was utilized to determine the ability of [natLu]DOTA -r -a -ABA -iodo CPCR4 and [ natLu]PentixaTher vs the reference CXCL12 to inhibit cAMP production induced by 5 µM Forskolin. […]
(15,000 g), and the supernatants were subjected to ultrafiltration. […] The blood extract was also analyzed by radio-HPLC. For all extracts the ex traction efficiency was determined in a ɣ -counter.

[2] = test system: Daudi (human B-cell lymphoma) xenograft bearing CB-17 SCID mice; assay: Biodistribution in Daudi xenograft bearing mice; type: in vivo, mouse; conditions: for Initial activity retained in the Daudi xenografts after 48h: 48h p.i. relative to early time point
Protocol: (§1) The biodistribution of selected compounds was investigated in Daudi (human B-cell lymphoma) xenograft bearing female CB-17 SCID mice (6-8 weeks, Charles River, Sulzfeld, Germany), [29]. All animal experiments were performed in accordance with current animal welfare regulations in Germany (approval #55.2-1-54-2532-71-13).
(§2) Animals (n=4-5 per group) were injected intravenously with 5-10 MBq (0.08-0.11 nmol peptide per mouse) of the respective ^68Ga- and^ 177Lu-labeled CXCR4 ligands in PBS (100 µL) into the tail vein under isoflurane anesthesia. CXCR4-specificity of binding was determined by coinjection of 50 µg AMD3100 per mouse. The animals were sacrificed 1, 6 and 48h post injection (p.i.), and the organs of interest were dissected. The radioactivity was measured in weighted tissue samples using a γ-counter. Data are expressed in % ID/g tissue (mean ± SD).

[3] = Lipophilicity, modified shake-flask method; type: physicochemical; conditions: O/PBS, radiolabeled compound, means ± SD (n=6)
Protocol: The lipophilicity (log PO/PBS) of the ^68Ga- and ^177Lu-labeled compounds in this study was determined via a modified shake-flask method.

[4] = Biodistribution in Daudi xenograft bearing mice; type: in vivo, mouse; conditions: female, CB-17 SCID, mouse, iv, total radioactivity, 48h p.i., means ± SD, n=4-5 animals
Protocol: as §1, §2

[5] = 1h p.i., tracer only, i.v., γ-counter, means ± SD, n=4-5 (68Ga: n=4)
[6] = 6h p.i., i.v., means ± SD, n=4-5
[7] = 48h p.i., i.v., means ± SD, n=4-5

## C[C@@H](NC(=O)[C@@H](CCCNC(=N)N)NC(=O)CN1CCN(CC(=O)O)CCN(CC(=O)O)CCN(CC(=O)O)CC1)C(=O)Nc1ccc(C(=O)NCCC[C@@H]2C(=O)N[C@@H](CCCNC(=N)N)C(=O)N[C@@H](Cc3ccc4ccccc4c3)C(=O)NCC(=O)N[C@H](Cc3ccc(O)c(I)c3)C(=O)N2C)cc1 [[^177Lu]DOTA-r-a-ABA-iodoCPCR4] [metal not drawn] (cyclo([2Nal]G[dTyr(3-I)][dNMeOrn]([4Abz-dA-dR-DOTA])R))
[1]
  Stable (intact tracer) in blood, urine and liver homogenates: > 99%
[2]; [5]
  Biodistribution adrenals: 4.54 ± 1.06 %iD/g
  Biodistribution blood: 2.90 ± 0.32 %iD/g
  Biodistribution colon: 1.19 ± 0.35 %iD/g
  Biodistribution femur: 1.92 ± 0.20 %iD/g
  Biodistribution heart: 1.87 ± 0.32 %iD/g
  Biodistribution kidney: 10.3 ± 0.26 %iD/g
  Biodistribution liver: 27.1 ± 1.87 %iD/g
  Biodistribution lung: 7.06 ± 0.67 %iD/g
  Biodistribution muscle: 0.58 ± 0.07 %iD/g
  Biodistribution pancreas: 0.69 ± 0.14 %iD/g
  Biodistribution small intestine: 1.44 ± 0.22 %iD/g
  Biodistribution spleen: 6.72 ± 0.70 %iD/g
  Biodistribution stomach: 1.95 ± 0.17 %iD/g
  Biodistribution tumor (Daudi xenograft): 17.2±2.0 %iD/g
[2]
  Initial activity retained in the Daudi xenografts after 48h: ~50%
[3]
  log PO/PBS: -2.8 ± 0.04

## C[C@@H](NC(=O)[C@@H](CCCNC(=N)N)NC(=O)CN1CCN(CC(=O)O)CCN(CC(=O)O)CCN(CC(=O)O)CC1)C(=O)Nc1ccc(C(=O)NCCC[C@@H]2C(=O)N[C@@H](CCCNC(=N)N)C(=O)N[C@@H](Cc3ccc4ccccc4c3)C(=O)NCC(=O)N[C@H](Cc3ccc(O)c(I)c3)C(=O)N2C)cc1 [[^68Ga]DOTA-r-a-ABA-iodoCPCR4] [metal not drawn] (cyclo([2Nal]G[dTyr(3-I)][dNMeOrn]([4Abz-dA-dR-DOTA])R))
[2]; [5]
  Biodistribution adrenals: 1.51 ± 0.18 %iD/g
  Biodistribution liver: 5.66 ± 0.40 %iD/g
  Biodistribution lung: 2.91 ± 0.28 %iD/g
  Biodistribution spleen: 3.02 ± 0.46 %iD/g
  Biodistribution stomach: 0.93 ± 0.15 %iD/g
  Biodistribution tumor (Daudi xenograft): 8.32 ± 1.30 %iD/g
[3]
  log PO/PBS: -3.3 ± 0.02

## CN1C(=O)[C@@H](Cc2ccc(O)c(I)c2)NC(=O)CNC(=O)[C@H](Cc2ccc3ccccc3c2)NC(=O)[C@H](CCCNC(=N)N)NC(=O)[C@H]1CCCNC(=O)c1ccc(CNC(=O)CN2CCN(CC(=O)O)CCN(CC(=O)O)CCN(CC(=O)O)CC2)cc1 [[^177Lu]PentixaTher, cyclo(D-3-iodo-Tyr^1-D-[NMe]Orn^2(AMBS-([^177Lu]DOTA)-Arg^3-Nal^4-Gly^5), metal not drawn, reference compound] (cyclo([dTyr(3-I)][dNMeOrn]([4Amb-DOTA])R[2Nal]G))
[2]; 1h p.i., tracer only, i.v., γ-counter, means ± SD, n=4-5
  Biodistribution brain: 0.05 ± 0.01 %iD/g
[2]; [5]
  Biodistribution adrenals: 1.5 ± 0.6 %iD/g
  Biodistribution femur: 0.6 ± 0.2 %iD/g
  Biodistribution heart: 0.9 ± 0.3 %iD/g
  Biodistribution kidney: 3.4 ± 0.6 %iD/g
  Biodistribution liver: 10.3 ± 0.8 %iD/g
  Biodistribution lung: 2.5 ± 0.7 %iD/g
  Biodistribution muscle: 0.3 ± 0.1 %iD/g
  Biodistribution pancreas: 0.4 ± 0.1 %iD/g
  Biodistribution small intestine: 0.9 ± 0.2 %iD/g
  Biodistribution spleen: 1.8 ± 0.3 %iD/g
  Biodistribution stomach: 1.2 ± 0.3 %iD/g
  Biodistribution tumor (Daudi xenograft): 12.4±3.7 %iD/g
[2]; [6]
  Biodistribution adrenals: 0.64 ± 0.13 %iD/g
  Biodistribution blood: 0.09 ± 0.01 %iD/g
  Biodistribution brain: 0.02 ± 0.005 %iD/g
  Biodistribution femur: 0.23 ± 0.02 %iD/g
  Biodistribution heart: 0.18 ± 0.02 %iD/g
  Biodistribution kidney: 2.52 ± 0.33 %iD/g
  Biodistribution liver: 9.59 ± 0.69 %iD/g
  Biodistribution lung: 0.42 ± 0.06 %iD/g
  Biodistribution muscle: 0.06 ± 0.01 %iD/g
  Biodistribution pancreas: 0.09 ± 0.01 %iD/g
  Biodistribution small intestine: 0.22 ± 0.04 %iD/g
  Biodistribution spleen: 1.35 ± 0.41 %iD/g
  Biodistribution stomach: 0.21 ± 0.01 %iD/g
  Biodistribution tumor (Daudi xenograft): 6.79 ± 0.68 %iD/g
[2]
  Initial activity retained in the Daudi xenografts after 48h: 25%
[2]; [7]
  Biodistribution adrenals: 0.56 ± 0.08 %iD/g
  Biodistribution blood: 0.02 ± 0.001 %iD/g
  Biodistribution brain: 0.007 ± 0.002 %iD/g
  Biodistribution femur: 0.22 ± 0.05 %iD/g
  Biodistribution heart: 0.11 ± 0.01 %iD/g
  Biodistribution kidney: 1.20 ± 0.13 %iD/g
  Biodistribution liver: 8.25 ± 2.23 %iD/g
  Biodistribution lung: 0.21 ± 0.06 %iD/g
  Biodistribution muscle: 0.04 ± 0.005 %iD/g
  Biodistribution pancreas: 0.08 ± 0.01 %iD/g
  Biodistribution small intestine: 0.11 ± 0.02 %iD/g
  Biodistribution spleen: 1.58 ± 0.33 %iD/g
  Biodistribution stomach: 0.12 ± 0.02 %iD/g
  Biodistribution tumor (Daudi xenograft): 3.27 ± 0.41 %iD/g
[4]; tumor / blood, read-out: Tumor/organ ratio t/blood
  tissue to tissue ratio at 48 h: 201 ± 27
[4]; tumor / colon, read-out: Tumor/organ ratio t/colon
  tissue to tissue ratio at 48 h: 13 ± 5
[4]; tumor / heart, read-out: Tumor/organ ratio t/heart
  tissue to tissue ratio at 48 h: 31 ± 4
[4]; tumor / kidney, read-out: Tumor/organ ratio t/kidney
  tissue to tissue ratio at 48 h: 2.7 ± 0.4
[4]; tumor / lung, read-out: Tumor/organ ratio t/lung
  tissue to tissue ratio at 48 h: 16 ± 5
[4]; tumor / muscle, read-out: Tumor/organ ratio t/muscle
  tissue to tissue ratio at 48 h: 85 ± 15
[4]; tumor / small intestine, read-out: Tumor/organ ratio t/small intestine
  tissue to tissue ratio at 48 h: 29 ± 6
[4]; tumor / spleen, read-out: Tumor/organ ratio t/spleen
  tissue to tissue ratio at 48 h: 2.1 ± 0.5
[4]; tumor / stomach, read-out: Tumor/organ ratio t/stomach
  tissue to tissue ratio at 48 h: 27 ± 6
[3]; octanol/PBS
  logD: -1.8 ± 0.2
